Each block holds one molecule with its values, some of them ahead of it.
Columns and labels:
Format in all cases: functional
[1] = target: T1, Metabotropic glutamate receptor 1 (Homo sapiens, UniProt Q13255); assay: Antagonist activity at mGlu1 receptor
[2] = target: T1, Metabotropic glutamate receptor 1; assay: Antagonist activity at human mGlu1 receptor
[3] = target: T2, Metabotropic glutamate receptor 2 (Homo sapiens, UniProt Q14416); assay: Antagonist activity at mGlu2 receptor
Mus musculus [4] = assay: Effect on pain in po dosed mouse in early phase of formalin assay
Mus musculus [5] = assay: Effect on pain in po dosed mouse in late phase of formalin assay
Rattus norvegicus [6] = assay: Effect on pain in ip dosed rat in late phase of formalin assay
[7] = target: T1, Metabotropic glutamate receptor 1; assay: Antagonist activity at human mGlu1b receptor
Rattus norvegicus [8] = assay: Effect on CFA-induced hyperalgesia in ip dosed rat
Rattus norvegicus [9] = assay: Effect on carrageenan model of inflammatory pain in ip dosed rat
[10] = target: T2, Metabotropic glutamate receptor 2; assay: Agonist activity at mGlu2 receptor

T1 sequence (Q13255 whole entry): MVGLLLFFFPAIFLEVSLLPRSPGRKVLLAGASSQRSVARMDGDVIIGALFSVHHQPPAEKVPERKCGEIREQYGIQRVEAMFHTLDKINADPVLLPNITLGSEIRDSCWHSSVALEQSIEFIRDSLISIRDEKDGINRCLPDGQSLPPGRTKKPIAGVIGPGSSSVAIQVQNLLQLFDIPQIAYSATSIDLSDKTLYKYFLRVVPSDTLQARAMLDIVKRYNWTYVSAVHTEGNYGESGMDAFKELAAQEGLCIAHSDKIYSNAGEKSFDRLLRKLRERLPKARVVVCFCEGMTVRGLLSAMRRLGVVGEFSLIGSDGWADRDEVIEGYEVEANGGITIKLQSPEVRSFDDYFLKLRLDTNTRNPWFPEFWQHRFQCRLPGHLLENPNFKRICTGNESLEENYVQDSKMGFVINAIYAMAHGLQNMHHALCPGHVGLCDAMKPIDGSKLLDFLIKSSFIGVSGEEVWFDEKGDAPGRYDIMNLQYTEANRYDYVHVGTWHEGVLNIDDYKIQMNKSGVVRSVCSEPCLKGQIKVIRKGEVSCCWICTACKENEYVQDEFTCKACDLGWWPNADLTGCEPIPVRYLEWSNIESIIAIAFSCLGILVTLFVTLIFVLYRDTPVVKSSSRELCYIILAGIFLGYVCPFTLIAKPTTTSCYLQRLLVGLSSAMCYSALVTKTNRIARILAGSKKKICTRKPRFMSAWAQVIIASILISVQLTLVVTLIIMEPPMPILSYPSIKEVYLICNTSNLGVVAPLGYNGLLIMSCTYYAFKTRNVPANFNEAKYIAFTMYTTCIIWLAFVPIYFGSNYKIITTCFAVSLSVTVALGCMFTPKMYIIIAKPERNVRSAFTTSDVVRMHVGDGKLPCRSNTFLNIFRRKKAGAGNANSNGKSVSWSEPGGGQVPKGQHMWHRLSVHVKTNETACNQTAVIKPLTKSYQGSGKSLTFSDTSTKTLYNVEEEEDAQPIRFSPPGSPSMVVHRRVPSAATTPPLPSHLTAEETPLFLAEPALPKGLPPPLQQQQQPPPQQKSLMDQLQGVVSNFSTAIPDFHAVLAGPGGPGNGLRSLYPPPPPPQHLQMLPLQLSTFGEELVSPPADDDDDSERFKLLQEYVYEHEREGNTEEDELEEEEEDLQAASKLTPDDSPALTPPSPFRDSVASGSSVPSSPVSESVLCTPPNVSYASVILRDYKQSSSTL
T2 sequence (Q14416 whole entry): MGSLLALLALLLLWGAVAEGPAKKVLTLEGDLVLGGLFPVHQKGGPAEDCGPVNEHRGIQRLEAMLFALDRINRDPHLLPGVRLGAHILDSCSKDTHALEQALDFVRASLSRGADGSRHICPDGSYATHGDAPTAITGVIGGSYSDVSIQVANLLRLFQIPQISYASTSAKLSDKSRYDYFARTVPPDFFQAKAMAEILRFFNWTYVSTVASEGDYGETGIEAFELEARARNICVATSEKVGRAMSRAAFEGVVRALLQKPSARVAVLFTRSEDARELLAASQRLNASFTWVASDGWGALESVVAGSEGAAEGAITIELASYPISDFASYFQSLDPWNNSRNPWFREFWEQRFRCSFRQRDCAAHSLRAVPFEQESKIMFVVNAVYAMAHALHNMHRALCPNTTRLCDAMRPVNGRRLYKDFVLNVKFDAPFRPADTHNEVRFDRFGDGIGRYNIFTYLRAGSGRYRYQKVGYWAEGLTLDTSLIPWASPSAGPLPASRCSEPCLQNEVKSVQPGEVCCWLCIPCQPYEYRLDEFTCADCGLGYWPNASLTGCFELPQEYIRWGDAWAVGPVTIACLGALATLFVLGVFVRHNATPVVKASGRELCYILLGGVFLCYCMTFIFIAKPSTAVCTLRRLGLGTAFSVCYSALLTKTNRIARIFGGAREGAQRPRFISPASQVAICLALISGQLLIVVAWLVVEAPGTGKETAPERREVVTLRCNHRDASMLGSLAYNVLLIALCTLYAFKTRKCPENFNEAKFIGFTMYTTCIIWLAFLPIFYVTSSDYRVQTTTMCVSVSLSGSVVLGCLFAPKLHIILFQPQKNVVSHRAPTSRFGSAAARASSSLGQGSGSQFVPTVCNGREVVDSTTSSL

IC50 [1]: 40 µM
Structure (SMILES): N[C@H](C(=O)O)c1ccc(O)c(C(=O)O)c1

IC50 [1]: 4.3 µM | IC50 [3]: 4.3 µM
Structure (SMILES): C[C@@](N)(C(=O)O)c1ccc(C(=O)O)cc1

EC50 [10]: 48 µM
Structure (SMILES): N[C@H](C(=O)O)c1ccc(C(=O)O)c(O)c1

IC50 [1]: 1 µM
Structure (SMILES): NC(CC1c2ccccc2Sc2ccccc21)(C(=O)O)C1CC(C(=O)O)C1 (configuration not stated)

IC50 [1]: 10 µM
Structure (SMILES): N[C@H](C(=O)O)c1ccc(C(=O)O)cc1

The remaining lines, values behind:

Structure (SMILES): CO[C@H]1CC[C@@H](C(=O)c2ccc3nc4c(cc3c2)CCCO4)CC1
IC50 [2]: 0.00121 µM

Structure (SMILES): C=C1C[C@@H]2COC(=O)[C@]2(Cc2ccc3ccccc3c2)C1
IC50 [1]: 0.16 µM

Structure (SMILES): Cc1c(C2=CCC(C(=O)N(C)C(C)C)CC2)nnn1-c1cccnc1F (configuration not stated)
IC50 [1]: 0.006 µM

Structure (SMILES): COc1ccc(Nc2ncnc3ccc(OC)cc23)cc1
IC50 [1]: 0.096 µM

Structure (SMILES): CCCOC(=O)c1[nH]c(C)c(C(=O)OC(C)C(C)(C)C)c1C (configuration not stated)
ED50 (Mus musculus [4]): 0.3 mg/kg | ED50 (Mus musculus [5]): 0.3 mg/kg | ED50 (Rattus norvegicus [6]): 3 mg/kg

Structure (SMILES): CCOC(=O)C12CC1/C(=N\O)c1ccccc1O2 (configuration not stated)
IC50 [7]: 6.6 µM

Structure (SMILES): CCc1ccc(-n2cnc3c(sc4nccc(N(C)C)c43)c2=O)cc1
ED50 (Rattus norvegicus [6]): 15 µmol/kg | ED50 (Rattus norvegicus [8]): 15 µmol/kg | ED50 (Rattus norvegicus [9]): 11 µmol/kg

— ChEMBL document CHEMBL1141458, “Prospects for metabotropic glutamate 1 receptor antagonists in the treatment of neuropathic pain” (J Med Chem, 2007)
